Consider two compounds from patent US20140364417A1, “METHOD OF TREATING ATRIAL FIBRILLATION” (Gilead Sciences, Inc., priority 2013, published 2014).

The conditions of data set [1]: Reffelmann and Kloner 2010; Verrier et al 2013; cited from earlier work.
Data set [2] is described as follows: Plasma level determination by LC/MS/MS in pigs. The class given is in vivo. Conditions: pig; at the time of testing combined administration with ivabradine. As for the experimental part:
Blood samples were collected in sodium heparin tubes at 0 and 30 minutes following ranolazine bolus administration and at 0, 15, and 30 minutes after ivabradine bolus administration. The samples were centrifuged and frozen at −80° C. until drug level determination was performed. Concentrations of ivabradine and ranolazine in plasma were determined at Gilead Sciences, Inc. (Foster City Calif.). Plasma was analyzed using a high-performance liquid chromatography-tandem mass spectrometric assay (LC/MS/MS). The quantification limit of ivabradine was 4 nM (1.87 ng/mL). The dynamic range of quantification was 4-10 000 nM (1.87-4686 ng/mL). Ranolazine and an internal standard were extracted with the protein precipitation extraction method. The dynamic range of quantification for ranolazine was 45.8-23,400.

The next data set has as its system male Yorkshire pigs. In words: Hemodynamic changes in pigs: sinus rate, mean arterial pressure, left ventricular dP/dt. Format: in vivo. The following applies: for sinus rate after drug: at the time of electrical testing, ivabradine 0.25 mg/kg, before drug 111±4.0 (ivabradine) and 105±5.7 (ranolazine, combination). The procedure: Data were gathered from male Yorkshire pigs (n=16) weighing 35±2 kg (mean±SEM). The animals were preanesthetized with telazol (4.7 mg/kg, intramuscularly) and then anesthetized with alpha-chloralose (100 mg/kg, i.v., bolus followed by 40 mg/kg/h, i.v., continuous infusion). The animals were intubated and ventilation was maintained between 10-16 breaths/min with volumes between 400-500 mL. Vital signs including core body temperature, heart rate, and oxygen saturation were continuously monitored.
The right and left femoral veins were cannulated with 7Fr introducer sheaths using the Seldinger technique to insert catheters in the right atrial (RA) appendage for pacing and for positioning the intrapericardial catheter. Arterial blood pressure was continuously monitored from a femoral arterial sheath, and intravenous fluids were administered through the ear vein. The electrocardiogram (ECG) was recorded with a Prucka Cardiolab workstation (GE Medical Systems, Milwaukee, Wis.) from atrial and ventricular sites.
Ranolazine was given as a 2.4 mg/kg, i.v., bolus followed by continuous infusion of 0.135 mg/kg/min, i.v.
A nonsteerable, quadripolar electrode catheter (Bard Electrophysiology, Lowell Mass.) was placed in the right atrium (RA) via the femoral vein and a second quadripolar electrode catheter in the right ventricle via the jugular vein. A bipolar electrode was placed in the non-coronary cusp of the aorta through the left carotid artery to record the His bundle electrogram. A pigtail catheter was inserted in the left ventricle via the left femoral artery to record and calculate contractility [left ventricular dP/dt]. Transatrial access was employed to deliver acetylcholine (ACh) into the pericardial space. Specifically, a small puncture was made in the RA appendage with the stiff end of a coronary angioplasty guidewire (0.014-inch Wizdom guidewire, Cordis, Miami, Fla., USA) placed within the lumen of a soft infusion catheter (0.038-inch SOS straight-tip, open-ended angiographic guidewire, Bard Electrophysiology). This wire-within-wire system was advanced as a unit into an 8Fr multipurpose guide catheter (MP2, Boston Scientific, Boston Mass.) previously positioned in the RA appendage via a femoral vein under fluoroscopic guidance and into the pericardial space. The infusion catheter was left in the pericardial space for delivery of ACh and the inner guidewire was removed. Conformation of the infusion catheter on fluoroscopy to the curvature of the heart verified its location within the pericardial space. All of the pericardial fluid was then aspirated with the infusion catheter. Intrapericardial access is associated with a hematocrit <2%, indicating minimum trauma from the atrial puncture (Kumar et al., J Cardiovasc Electrophysiol 2009; 20:796-802). The presence of acetylcholinesterase can rapidly degrade ACh and prevent a sustained response to this neurotransmitter.
The statistical tests were carried out with a SAS statistical package (SAS Institute, Cary, N.C.). Effects on electrophysiologic properties were determined by repeated measures analysis of variance (ANOVA) followed by post-hoc t-tests with Bonferroni correction for multiple comparisons. For mean arterial pressure, heart rate, and dominant frequency during atrial fibrillation, we used paired t-tests to compare effects of agents to baseline. All data are reported as mean±SEM, with P<0.05 considered significant.

Data set [3] deals with Guinea Pig Isolated Hearts. In words: S-H interval (AV nodal conduction) in guinea pig isolated, Langendorff-perfused paced hearts. The following applies: for second-degree AV block (dropped beats): isolated paced hearts, drug alone; for increase in the S-H interval compared to control (no drug): ivabradine 0.1 μM, ranolazine 2 μM, alone or combined, pacing rate of 4 and 5 Hz, FIG. 1. The source says:
To test the combined effects of ranolazine and ivabradine on AV conduction, the following experimental procedures were employed.
Guinea pigs (Hartley) of either sex weighing 300-350 g were anesthetized by inhalation of isoflurane. The chest of a guinea pig was cut open, and the heart was quickly removed and rinsed in ice-cold modified Krebs-Henseleit (K-H) solution. The contents of the modified K-H solution were (in mM) 117.9 NaCl, 4.8 KCl, 2.5 CaCl2, 1.18 MgSO4, 1.2 KH2PO4, 0.5 Na2 EDTA, 0.14 ascorbic acid, 5.5 dextrose, 2.0 pyruvic acid (sodium salt), and 25 NaHCO3. The K-H solution was continuously gassed with 95% O2-5% CO2, and the pH was adjusted to a value of 7.4.
To perfuse the heart by the Langendorff method, the transected aorta was slid onto a glass cannula and secured by a ligature. Retrograde perfusion of the aorta was initiated immediately at a constant flow of 10 mL/min with modified K-H solution warmed to 37.0±0.5° C. A side port in the cannula was used to connect the perfusion line to a pressure transducer (AD Instruments, Australia) for measurement of coronary perfusion pressure (CPP). To facilitate the exit of fluid from the left ventricle, the leaflets of the mitral valve were trimmed with fine spring-handled scissors. Hearts were allowed to beat spontaneously in experiments to measure heart rate, or paced at a constant rate using external electrodes, in experiments to measure AV conduction time. After completion of dissection and instrumentation, stimulus-to-H is bundle (S-H) interval was monitored continuously. Each heart was allowed to equilibrate for 20-40 min before the administration of drug. Experimental interventions were always preceded and followed by control measurements.
To facilitate the recording of a drug effect on the S-H interval, parts of the left and right atrial tissues, including the region of the sinoatrial node, were removed, both to decrease the spontaneous heart rate and to expose the atrial septum for electrode placement. A bipolar Teflon-coated electrode was placed in the wall of the intra-atrial septum to pace the heart. […] Stimuli were provided by a stimulation generator (model 48, Grass Instruments, W. Warwick, R I) and delivered to the heart through a stimulus isolation unit as square wave pulses of 3 msec duration and at least twice the threshold intensity.
A His bundle electrogram was recorded using a Teflon-coated unipolar electrode placed in the right side of the interatrial septum adjacent to the AV junction. […]
Ivabradine (Iva), ranolazine (Ran) or the combination thereof was infused to the hearts. Each concentration of Iva was infused for about 20 min to allow a steady-state response to be recorded, whereas each concentration of ranolazine was infused for 10 min to allow a steady-state response to be recorded. […]

As for `COc1ccccc1OCC(O)CN1CCN(CC(=O)Nc2c(C)cccc2C)CC1` (racemic) [ranolazine, (±)-N-(2,6-dimethylphenyl)-4-[2-hydroxy-3-(2-methoxyphenoxy)-propyl]-1-piperazineacetamide], the “steady-state plasma therapeutic concentration” value in data set [1] is 2 to 8 µM. For the same compound, the “plasma level of ranolazine” value in data set [2] amounted to 9.8 ± 1.5 µM. Further, the “sinus rate after drug” value in the data set on male Yorkshire pigs stood at 96±3.9 beats/min. For the same compound, in the data set with male Yorkshire pigs (pig, in vivo), the “effect on left ventricular (LV) dP/dt (contractility)” value is listed as “not altered” and the “effect on mean arterial pressure during sinus rhythm” value is given as “Neither ivabradine nor ranolazine given separately altered”. Moreover, in data set [3], the “second-degree AV block (dropped beats)” value is “without causing second-degree AV block” and the “increase in the S-H interval compared to control (no drug)” value is “small but significant increase”.
With `COc1cc2c(cc1OC)CC(=O)N(CCCN(C)C[C@H]1Cc3cc(OC)c(OC)cc31)CC2` [ivabradine, 3-{3-[{[(7S)-3,4-dimethoxybicyclo[4.2.0]octa-1,3,5-trien-7-yl]methyll}-(methyl)amino]propyl}-7,8-dimethoxy-1,3,4,5-tetrahydro-2H-3-benzapenin-2-one], the “left ventricular (LV) dP/dt after drug” value in the data set on male Yorkshire pigs (at 30 min after drug, pacing at 180 beats/min, baseline 2156±647.4 (ivabradine) and 1864±109.1 (ranolazine, combination)) is 2342±486.5 mmHg/sec. Further, the “sinus rate after drug” value in the data set on male Yorkshire pigs amounted to 90±3.3 beats/min. Besides, in the data set with male Yorkshire pigs (drugs given separately), the “effect on mean arterial pressure during sinus rhythm” value is given as “Neither ivabradine nor ranolazine given separately altered”. Further, in the data set with male Yorkshire pigs (pacing at 180 beats/min), the “effect on left ventricular (LV) dP/dt (contractility)” value is given as “not altered”. Moreover, in data set [3], the “second-degree AV block (dropped beats)” value is given as “without causing second-degree AV block” and the “increase in the S-H interval compared to control (no drug)” value is listed as “small but significant increase”.
